Assay: Inhibition of alpha-glucosidase (unknown origin); call rule not given here
Design: species or system Homo sapiens

Row | Structure (SMILES) | IC50 | IC50 (read-out: IC50) [µM]
1 | CC(=O)Oc1ccc(C(=O)C(C)C)c(O)c1 | Not Active | –
2 | CCCCCCC(=O)Oc1cc(O)c(C(=O)C(C)C)cc1C | – | 5.93
3 | Cc1cc(C(=O)C(C)C)c(O)c(Br)c1OC(=O)C(C)(C)C | – | 1.86
4 | Cc1cc(C(=O)C(C)C)c(O)cc1OC(=O)CBr | – | 14.9
5 | CCCCC(=O)c1ccc(OC(=O)CI)cc1O | Not Active | –
6 | CCCCCC(=O)c1ccc(OC(=O)CI)cc1O | – | 8.97
7 | CCCCCCC(=O)c1cc(C)c(O)cc1O | – | 40.9
8 | Cc1cc(C(=O)C(C)C)c(O)cc1OC(=O)c1cccc(Cl)c1 | – | 28.1
9 | Cc1cc(C(=O)C(C)C)c(O)cc1OC(=O)C(C)(C)C | – | 16
10 | CC(C)C(=O)c1cc(Br)c(OC(=O)CI)cc1O | – | 11.3
11 | CC(C)C(=O)c1cc(Br)c(OC(=O)CCl)cc1O | – | 143
12 | Cc1cc(C(=O)C(C)C)c(O)c(Br)c1OC(=O)c1ccc(F)cc1 | – | 15.7
13 | CCCC(=O)Oc1cc(O)c(C(=O)C(C)C)cc1C | – | 43.2
14 | Cc1ccc(C(=O)Oc2c(C)cc(C(=O)C(C)C)c(O)c2Br)cc1 | – | 25.2
15 | CC(C)C(=O)c1ccc(OC(=O)CBr)cc1O | – | 35.8
16 | CC(C)C(=O)c1cc(Br)c(O)cc1O | – | 29
17 | Cc1cc(C(=O)C(C)C)c(O)c(Br)c1OC(=O)CBr | – | 11.9
18 | CC(C)C(=O)c1ccc(OC(=O)CI)cc1O | – | 14.4
19 | Cc1cc(C(=O)C(C)C)c(O)cc1OC(=O)Cc1ccccc1 | – | 25.4

Row | Structure (SMILES) | IC50 | IC50 (read-out: IC50) [µM]
20 | CC(C)C(=O)c1ccc(OC(=O)CCl)cc1O | Not Active | –
21 | COc1ccc(C(=O)Oc2c(C)cc(C(=O)C(C)C)c(O)c2Br)cc1 | – | 27.6
22 | Cc1cc(C(=O)C(C)C)c(O)cc1O | – | 23.7
23 | CCCCC(=O)c1cc(C)c(OC(=O)CI)cc1O | – | 5.58
24 | Cc1cc(C(=O)C(C)C)c(O)c(Br)c1OC(=O)c1ccc(I)cc1 | – | 25.4
25 | CCCCC(=O)Oc1cc(O)c(C(=O)C(C)C)cc1C | – | 24.7
26 | CCC(=O)c1cc(C)c(OC(=O)CI)cc1O | – | 6.22
27 | CCC(=O)c1ccc(O)cc1O | Not Active | –
28 | CCCCCC(=O)c1cc(C)c(O)cc1O | – | 66.5
29 | CC(C)C(=O)Oc1ccc(C(=O)C(C)C)c(O)c1 | – | 72.5
30 | Cc1cc(C(=O)C(C)C)c(O)cc1OC(=O)CCl | – | 140
31 | Cc1cc(C(=O)C(C)C)c(O)c(Br)c1OC(=O)CCl | – | 30.9
32 | Cc1cc(C(=O)C(C)C)c(O)c(Br)c1OC(=O)c1ccc(Cl)cc1 | – | 24.9
33 | CCCCC(=O)c1ccc(O)cc1O | Not Active | –
34 | CC(=O)Oc1cc(O)c(C(=O)C(C)C)cc1C | Not Active | –
35 | Cc1cc(C(=O)C(C)C)c(O)cc1OC(=O)c1ccccc1Cl | – | 27.4
36 | CCCCCCC(=O)c1cc(C)c(OC(=O)CI)cc1O | – | 1.77
37 | Cc1cc(C(=O)C(C)C)c(O)cc1OC(=O)c1ccc(Br)cc1 | – | 26
38 | Cc1cc(C(=O)C(C)C)c(O)cc1OC(=O)c1ccc(Cl)cc1 | – | 10.9

Row | Structure (SMILES) | IC50 | IC50 (read-out: IC50) [µM]
39 | O=c1c(-c2ccc(O)cc2)coc2cc(O)cc(O)c12 [GENISTEIN] | – | 7.21
40 | Cc1cc(C(=O)C(C)C)c(O)c(Br)c1O | – | 21
41 | CCCCCC(=O)c1ccc(O)cc1O | – | 107
42 | CC(=O)Oc1cc(O)c(C(=O)C(C)C)cc1Br | Not Active | –
43 | CCCCCCCCCC(=O)Oc1cc(O)c(C(=O)C(C)C)cc1C | – | 8.45
44 | Cc1cc(C(=O)C(C)C)c(O)cc1OC(=O)c1ccccc1 | – | 14.6
45 | CCCCC(=O)c1cc(C)c(O)cc1O | Not Active | –
46 | Cc1cc(C(=O)C(C)C)c(O)cc1OC(=O)CI | – | 4.27
47 | CCCCCCC(=O)c1ccc(O)cc1O | – | 81.9
48 | Cc1cc(C(=O)C(C)C)c(O)c(Br)c1OC(=O)c1ccc([N+](=O)[O-])cc1 | – | 20.6
49 | CCCCCCCC(=O)c1ccc(O)cc1O | – | 74.6
50 | CC(C)C(=O)c1ccc(OC(=O)C(C)(C)C)cc1O | – | 33.4
51 | CCC(=O)c1ccc(OC(=O)CI)cc1O | Not Active | –
52 | CC(C)C(=O)c1cc(Br)c(OC(=O)CBr)cc1O | – | 15
53 | CCCCCC(=O)c1cc(C)c(OC(=O)CI)cc1O | – | 3.9
54 | CCC(=O)Oc1cc(O)c(C(=O)C(C)C)cc1C | Not Active | –
55 | CCC(=O)c1cc(C)c(O)cc1O | Not Active | –
56 | CCCCCCCC(=O)c1cc(C)c(O)cc1O | – | 35.6
57 | CC(=O)Oc1c(C)cc(C(=O)C(C)C)c(O)c1Br | – | 121
